The record followed here is ChEMBL document CHEMBL1201862, “PubChem BioAssay data set” (2004).

Common to all, as to assay: DTP human tumour cell line panel, 48 h
For experiment [1], the system named is SN12C.
In experiment [2] the test system is LOX IMVI.
Experiment [3] relates to LXFL 529.
The subject of experiment [4] is A549.
Experiment [5] concerns SF-295.
Experiment [6] has as its system SK-OV-3.
For experiment [7], the system named is CAKI-1.
For experiment [8], the system named is 786-0.
In experiment [9] the test system is NCI-H23.
The subject of experiment [10] is HCT-116.
For experiment [11], the system named is NCI-H522.
The test system of experiment [12] is OVCAR-3.
The test system of experiment [13] is COLO 205.
Experiment [14] deals with HOP-92.
The subject of experiment [15] is UO-31.
For experiment [16], the system named is OVCAR-4.

Molecules are shown by their SMILES.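 Grown in 96-well plates, cells were treated for 48 hours with each compound at five concentrations. Insufficient inhibition: endpoint recorded as highest concentration tested. GI50 is the concentration that inhibits growth by half.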 Active and inactive are the calls of the source. No stated cut-off is given here; in the data, active = GI50 up to about 1.1 µM and inactive = higher. A value given as a limit tells only on which side of the number the result lay.

As to `COC(=O)C(=Cc1cc(OC)c(OC)c(OC)c1-c1cc2c(cc1C(C)=O)OCO2)C(=O)OC`, the GI50 in experiment [1] was 27.7 µM (inactive); in experiment [2], 30.8 µM (inactive); in experiment [3] it was 33.8 µM (inactive); in [4], 55.6 µM (inactive); in [5] it was 48.5 µM (inactive); in experiment [6], 71.9 µM (inactive). The GI50 is 54.3 µM (inactive) in experiment [7]; 33.1 µM (inactive) in experiment [8]; 34.7 µM (inactive) in experiment [9]; 32.2 µM (inactive) in experiment [10]; 28.5 µM (inactive) in experiment [11]; 26.5 µM (inactive) in experiment [12]. In addition, the GI50 in [13] was 35.3 µM (inactive); in experiment [14], 44 µM (inactive).
In the case of `O=C(C(O)c1cn(Cc2ccccc2)c2ccccc12)N1CCCCC1` (stereo not given), the GI50 is 82.6 µM (inactive) in experiment [1]; > 100 µM (inactive) in experiment [15]; > 100 µM (inactive) in experiment [2]; 79.6 µM (inactive) in experiment [3]; 45 µM (inactive) in [4]; 76 µM (inactive) in [5]. The GI50 is 72.8 µM (inactive) in experiment [6]; > 100 µM (inactive) in [8]; > 10 µM (inactive) in experiment [9]; > 100 µM (inactive) in experiment [10]; 44.4 µM (inactive) in [11]; 50 µM (inactive) in experiment [12]. Besides, the GI50 in experiment [13] and in [14] was > 100 µM (inactive) each time.
With `CC(=O)NNc1nc(C)c(C(=O)NNC(=O)C(=O)Nc2c(C)cccc2C(C)C)s1`, the GI50 in experiment [1] was > 100 µM (inactive); in experiment [15], > 100 µM (inactive); in experiment [2], 55.5 µM (inactive); in [3], 46.1 µM (inactive); in [16], 32.8 µM (inactive); in experiment [4], 61 µM (inactive). For the same compound, the GI50 was 89.9 µM (inactive) in [5]; > 100 µM (inactive) in experiment [6]; > 100 µM (inactive) in experiment [8]; > 100 µM (inactive) in experiment [9]; 84.1 µM (inactive) in experiment [10]; 35.4 µM (inactive) in [11]. Moreover, the results for the GI50 in experiment [12], in experiment [13] and in [14] were 36.9 µM (inactive), > 100 µM (inactive) and 78 µM (inactive), respectively.
As to `NC(=O)N/N=C/C(/C=N/NC(N)=O)[N+](=O)[O-]`, the GI50 in [1], in [2], in experiment [3], in experiment [16], in experiment [4] and in [5] was > 100 µM (inactive) each time. The GI50 in experiment [6], in experiment [7], in [8], in experiment [9], in experiment [10] and in experiment [11] was > 100 µM (inactive) each time. Moreover, the GI50 in experiment [12], in experiment [13] and in experiment [14] was > 100 µM (inactive) in each case.
`CC1(c2ccc[n+](Cc3ccccc3)c2)OCCO1`: the GI50 in [1], in experiment [15], in [2], in experiment [3], in [16] and in experiment [4] was > 100 µM (inactive) each time. For the same compound, the GI50 in experiment [5], in experiment [6], in experiment [7], in experiment [8], in [9] and in [10] was > 100 µM (inactive) each time. Besides, the GI50 in experiment [11], in experiment [12] and in experiment [13] was > 100 µM (inactive) each time.
In the case of `O=C1/C(=C/c2cccc([N+](=O)[O-])c2)COc2ccc(Br)cc21`, the GI50 is 95.5 µM (inactive) in experiment [15]; 37.2 µM (inactive) in experiment [2]; > 100 µM (inactive) in [3]; > 100 µM (inactive) in experiment [4]; > 100 µM (inactive) in [5]; > 100 µM (inactive) in experiment [6]. The GI50 in [8] is 90.2 µM (inactive); in [9], > 100 µM (inactive); in experiment [10], 32.6 µM (inactive); in [11], 55 µM (inactive); in experiment [12], > 100 µM (inactive); in experiment [13] it was > 100 µM (inactive). Further, the GI50 in experiment [14] was > 100 µM (inactive).
With `CCOC(=O)c1ccn2c(c1)c(C#N)c1nc3ccccc3nc12`, the GI50 in experiment [1] was 83.8 µM (inactive); in [15] it was 42.4 µM (inactive); in experiment [2], 29.2 µM (inactive); in experiment [3], 31.6 µM (inactive); in experiment [16], 91 µM (inactive); in experiment [4] it was 50.1 µM (inactive). The GI50 in experiment [6] was 55.1 µM (inactive); in [7] it was 54.5 µM (inactive); in [8] it was > 100 µM (inactive); in experiment [9], 37.2 µM (inactive); in experiment [10], 46.8 µM (inactive); in [11] it was 45.3 µM (inactive). For the same compound, the GI50 is > 100 µM (inactive) in [12] and 48.2 µM (inactive) in [13].
Regarding `O=C1NC(=S)NC(=O)C1=CC1CC1`, the GI50 in experiment [1], in experiment [15], in [2], in experiment [3], in experiment [16] and in experiment [4] was > 100 µM (inactive) throughout. Besides, the GI50 in [5], in experiment [6], in [7], in [8], in experiment [9] and in experiment [10] was > 100 µM (inactive) in each case. The GI50 in [11], in experiment [13] and in experiment [14] was > 100 µM (inactive) in each case.
`Cc1ccc(C(=O)C(C)N)cc1C` (stereo not given): the GI50 in experiment [1], in experiment [15], in [2], in [3], in experiment [16] and in [4] was > 100 µM (inactive) in each case. Further, the GI50 in experiment [5], in experiment [6], in experiment [7], in experiment [8], in experiment [9] and in experiment [10] was > 100 µM (inactive) throughout. The GI50 in experiment [11], in experiment [12] and in [13] was > 100 µM (inactive) throughout.
Consider `C[C@]12CCC(=O)C=C1CC[C@@H]1[C@@H]2[C@@H](O)C[C@@]2(C)[C@H]1CC[C@]2(O)C(=O)COC(=O)CCC1CCCC1` [HYDROCORTISONE CYPIONATE], for which the GI50 in experiment [1] was 0.693 µM (active); in experiment [15], > 100 µM (inactive); in experiment [2], > 100 µM (inactive); in experiment [3] it was > 100 µM (inactive); in experiment [4] it was > 100 µM (inactive); in experiment [5], > 100 µM (inactive). Moreover, the GI50 in [6] was 5.83 µM (inactive); in experiment [7], 87.5 µM (inactive); in [8] it was > 100 µM (inactive); in [9], > 100 µM (inactive); in experiment [10], > 100 µM (inactive); in [11] it was > 100 µM (inactive). Besides, the GI50 in experiment [12], in experiment [13] and in [14] was > 100 µM (inactive) each time.
